Tested on: T1, phytase from A. terreus
T1 construct: gene phyA; native, secreted; purified from solid-state culture on wheat bran (acetone, Sephadex G100, Sepharose 4B); 85 kDa subunit by SDS-PAGE
Experiment: released inorganic phosphate, ammonium molybdate colorimetry at […] nm
Assay type: biochemical, Aspergillus terreus
Settings: standard assay: potassium phosphate buffer pH 7.4, 40 °C, 15 min, table title misprinted as A. flavus GST

| SMILES | Km [µM] |
| --- | --- |
| Nc1ncnc2c1ncn2[C@@H]1O[C@H](COP(=O)(O)OP(=O)(O)OP(=O)(O)O)[C@@H](O)[C@H]1O [ATP] | 190 |
| O=P(O)(O)OC[C@H]1OC(O)(COP(=O)(O)O)[C@@H](O)[C@@H]1O (stereo partly drawn) [Fructose 1,6-diphosphate] | 280 |
| O=P(O)(O)O[C@H]1[C@H](OP(=O)(O)O)[C@@H](OP(=O)(O)O)[C@H](OP(=O)(O)O)[C@@H](OP(=O)(O)O)[C@H]1OP(=O)(O)O [Phytic acid] | 25 |
